Test results: patent US9663516B2, “Bicyclic-pyrimidinedione compounds” (MyoKardia, Inc., priority 2014, dated 2017)

Target: bovine cardiac myosin (Bos taurus, UniProt Q9BE39)
Experiment: Myosin inhibition assay (PK/LDH-coupled ATPase, bovine cardiac myofibrils)
Format: biochemical
Conditions: calcium concentration giving 50% activation, pH 6.8, read-out: bcMF pCa_6 IC50
Procedure: Small molecule agents were assessed for their ability to inhibit the enzymatic activity of bovine cardiac myosin using a biochemical assay that couples the release of ADP (adenosine diphosphate) from cardiac myosin to an enzymatic coupling system consisting of pyruvate kinase and lactate dehydrogenase (PK/LDH) and monitoring the absorbance decrease of NADH (at 340 nm) as a function of time. PK converts ADP to ATP (adenosine triphosphate) by converting PEP (phosphoenolpyruvate) to pyruvate. Pyruvate is then converted to lactate by LDH by converting NADH (nicotinamide adenine dinucleotide) to NAD (oxidized nicotinamide adenine dinucleotide). […] Prior to testing small molecule agents, the bovine myofibrils were assessed for their calcium responsiveness and the calcium concentration that achieves a 50% activation of the myofibril system was chosen as the final condition for assessing the inhibitory activity of the small molecule agents. All enzymatic activity was measured in a buffered solution containing 12 mM PIPES (piperazine-N,N′-bis(2-ethanesulfonic acid), 2 mM magnesium chloride at pH 6.8 (PM12 buffer). Final assay conditions were 1 mg/mL of bovine cardiac myofibrils, 0.4 mM PK/LDH, 50 uM ATP, 0.1 mg/mL BSA (bovine serum albumin), 10 ppm antifoam, 2 mM BME, 0.5 mM NADH, 1.5 mM PEP at the desired free calcium concentration required to achieve 50% activation of the myofibrils.
A dilution series of compound was created in DMSO such that the final desired concentration of compound would be achieved in a volume of 30 μL with a fixed DMSO concentration of 3.3% (v/v). Typically 1 μL of the dilution series were added to 384 well plate to achieve an 10 point dose response. Following the addition of 14 μL of a solution containing bovine cardiac myofibrils, PK/LDH and a solution of calcium (that achieved 50% activation), the enzymatic reaction was started with the addition of 15 μL of a solution containing ATP, PEP and NADH. The reaction progress was followed in a PerkinElmer Envision plate reader at ambient temperature using clear bottom plates. The plate reader was configured to read absorbance at 340 nm in kinetics mode for 15 minutes. Data were recorded as the slope of the absorbance response to time. The slopes of the absorbance response as a function of time were normalized to slopes on the plate containing DMSO. This normalized rate was then plotted as a function of small molecule concentration and the data was fitted to a four-parameter fit using EXCEL XLfit. The IC50 is the concentration at which fifty percent of the total response is inhibited.

Chain of bovine cardiac myosin (Q9BE39 whole entry): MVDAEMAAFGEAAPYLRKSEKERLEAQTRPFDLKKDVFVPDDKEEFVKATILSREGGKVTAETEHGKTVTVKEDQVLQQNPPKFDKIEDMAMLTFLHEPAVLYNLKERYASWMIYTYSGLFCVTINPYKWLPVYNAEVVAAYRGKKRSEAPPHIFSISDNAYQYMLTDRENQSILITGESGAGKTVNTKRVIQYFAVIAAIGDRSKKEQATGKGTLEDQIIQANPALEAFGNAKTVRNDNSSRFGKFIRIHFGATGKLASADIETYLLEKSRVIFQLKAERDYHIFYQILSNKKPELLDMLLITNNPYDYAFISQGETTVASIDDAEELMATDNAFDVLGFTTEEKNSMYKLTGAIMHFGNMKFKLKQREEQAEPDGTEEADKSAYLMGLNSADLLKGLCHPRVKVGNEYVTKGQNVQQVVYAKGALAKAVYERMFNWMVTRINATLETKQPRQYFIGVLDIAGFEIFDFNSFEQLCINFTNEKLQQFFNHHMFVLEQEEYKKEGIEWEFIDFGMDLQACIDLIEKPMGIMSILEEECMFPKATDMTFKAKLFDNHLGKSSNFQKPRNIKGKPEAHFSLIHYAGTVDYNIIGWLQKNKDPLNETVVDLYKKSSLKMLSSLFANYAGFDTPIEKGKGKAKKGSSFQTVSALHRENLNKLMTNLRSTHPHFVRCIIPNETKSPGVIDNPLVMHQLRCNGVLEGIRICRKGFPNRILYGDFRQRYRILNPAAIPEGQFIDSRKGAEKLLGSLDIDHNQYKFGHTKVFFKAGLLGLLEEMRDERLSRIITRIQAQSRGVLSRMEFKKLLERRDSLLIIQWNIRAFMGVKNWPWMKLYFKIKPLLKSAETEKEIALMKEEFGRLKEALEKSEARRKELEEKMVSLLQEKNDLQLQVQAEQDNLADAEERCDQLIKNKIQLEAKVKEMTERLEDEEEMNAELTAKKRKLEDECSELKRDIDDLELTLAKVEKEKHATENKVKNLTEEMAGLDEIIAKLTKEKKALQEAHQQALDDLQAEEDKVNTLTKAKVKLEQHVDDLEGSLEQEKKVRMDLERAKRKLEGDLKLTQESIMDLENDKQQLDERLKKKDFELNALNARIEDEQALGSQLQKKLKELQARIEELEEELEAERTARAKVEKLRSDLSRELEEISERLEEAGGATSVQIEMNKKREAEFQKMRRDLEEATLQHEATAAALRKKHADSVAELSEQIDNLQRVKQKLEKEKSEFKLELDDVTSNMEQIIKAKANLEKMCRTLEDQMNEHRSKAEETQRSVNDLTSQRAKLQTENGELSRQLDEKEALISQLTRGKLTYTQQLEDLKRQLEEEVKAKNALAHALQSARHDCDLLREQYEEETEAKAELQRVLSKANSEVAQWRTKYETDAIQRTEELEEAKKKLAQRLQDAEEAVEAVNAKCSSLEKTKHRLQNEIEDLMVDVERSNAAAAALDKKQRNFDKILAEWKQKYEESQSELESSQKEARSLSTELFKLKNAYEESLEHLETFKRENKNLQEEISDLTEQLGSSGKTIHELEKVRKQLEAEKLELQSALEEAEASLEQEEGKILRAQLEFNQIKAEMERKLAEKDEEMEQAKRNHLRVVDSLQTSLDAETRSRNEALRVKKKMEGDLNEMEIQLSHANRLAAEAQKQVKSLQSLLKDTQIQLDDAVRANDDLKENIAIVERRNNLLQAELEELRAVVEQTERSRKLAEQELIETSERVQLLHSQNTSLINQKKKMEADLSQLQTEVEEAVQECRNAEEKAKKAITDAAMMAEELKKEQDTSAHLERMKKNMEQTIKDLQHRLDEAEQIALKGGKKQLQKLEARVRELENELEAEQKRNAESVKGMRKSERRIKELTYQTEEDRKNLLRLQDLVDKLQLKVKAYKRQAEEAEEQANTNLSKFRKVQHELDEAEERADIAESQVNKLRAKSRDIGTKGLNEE
Chain of bovine cardiac myosin (P85100 whole entry partner): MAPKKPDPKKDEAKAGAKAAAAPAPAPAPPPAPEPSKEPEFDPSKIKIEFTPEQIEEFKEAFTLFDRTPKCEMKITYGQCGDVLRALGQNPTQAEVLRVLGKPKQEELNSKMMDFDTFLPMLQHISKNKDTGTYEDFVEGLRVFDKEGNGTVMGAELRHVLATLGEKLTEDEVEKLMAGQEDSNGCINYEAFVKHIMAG
Chain of bovine cardiac myosin (Q3SZE5 whole entry partner): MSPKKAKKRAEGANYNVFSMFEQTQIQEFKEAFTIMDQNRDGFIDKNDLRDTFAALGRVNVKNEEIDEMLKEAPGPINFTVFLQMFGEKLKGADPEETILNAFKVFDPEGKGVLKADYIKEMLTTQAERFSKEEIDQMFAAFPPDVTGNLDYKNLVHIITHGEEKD

SMILES | IC50
O=c1[nH]c2c(c(=O)n1-c1ccccc1)CC[C@@H](c1ccccc1F)N2 [Compound 109] | > 15 µM
CC(C)n1c(=O)[nH]c2c(c1=O)C[C@@H](Cc1ccccc1)N2 [Compound 88] | > 15 µM
CCn1c(=O)[nH]c2c(c1=O)CC[C@@](c1ccccc1)(C(C)C)N2 [Compound 131] | 1 to 15 µM
CCn1c(=O)[nH]c2c(c1=O)CC[C@@H](c1ccc(F)c(F)c1)CN2 [Compound 98] | > 15 µM
CC(C)n1c(=O)[nH]c2c(c1=O)C[C@H](Cc1ccccc1)N2 [Compound 87] | > 15 µM
C[C@]1(c2cccc(F)c2)CCc2c([nH]c(=O)n(-c3ccccc3)c2=O)N1 [Compound 127] | < 1 µM
Cn1c(=O)[nH]c2c(c1=O)CC[C@](C)(c1cccc(F)c1)N2 [Compound 126, (R)-7-(3-Fluorophenyl)-3,7-dimethyl-5,6,7,8-tetrahydropyrido[2,3-d]pyrimidine-2,4(1H,3H)-dione] | 1 to 15 µM
CC(C)n1c(=O)[nH]c2c(c1=O)C[C@@H](c1ccccc1)N2 (single isomer, unassigned) [Compound 8] | > 15 µM
CC(C)n1c(=O)[nH]c2c(c1=O)CC[C@H](c1cccc(F)c1F)N2 [Compound 76] | 1 to 15 µM
CC1(n2c(=O)[nH]c3c(c2=O)CC[C@H](c2ccccc2)N3)CC1 [Compound 56] | 1 to 15 µM
CCn1c(=O)[nH]c2c(c1=O)CCC[C@@H](c1ccc(F)c(F)c1)N2 [Compound 100] | > 15 µM
C[C@]1(c2cccc(F)c2)CCc2c([nH]c(=O)n(CC(F)F)c2=O)N1 [Compound 136] | < 1 µM
CC(C)n1c(=O)[nH]c2c(c1=O)CC[C@H](CC1CC(F)(F)C1)N2 [Compound 50] | 1 to 15 µM
C[C@]1(c2cc(F)ccc2F)CCc2c([nH]c(=O)n(C3CC3)c2=O)N1 [Compound 138] | < 1 µM
COC(=O)N1CCC([C@H]2CCc3c([nH]c(=O)n(C(C)C)c3=O)N2)CC1 [Compound 141] | 1 to 15 µM
CC(C)n1c(=O)[nH]c2c(c1=O)CC[C@@](C)(c1ccccc1)N2 [Compound 107] | > 15 µM
CCn1c(=O)[nH]c2c(c1=O)CC[C@H](c1c(F)cccc1F)N2 [Compound 75] | > 15 µM
O=c1[nH]c2c(c(=O)n1C1CCOCC1)CC[C@H](c1ccccc1)N2 [Compound 32] | 1 to 15 µM
O=c1[nH]c2c(c(=O)n1-c1ccccc1)CC[C@H](c1cccc(F)c1)N2 [Compound 49] | 1 to 15 µM
CC[C@H](C)n1c(=O)[nH]c2c(c1=O)CC[C@H](C1CCC(F)(F)CC1)N2 [Compound 29] | 1 to 15 µM
CCn1c(=O)[nH]c2c(c1=O)CC[C@](c1ccccc1)(C1CCC1)N2 [Compound 146] | > 15 µM
COc1cccc([C@H]2CCc3c([nH]c(=O)n(C(C)C)c3=O)N2)c1 [Compound 5, (R)-3-Isopropyl-7-(3-methoxyphenyl)-5,6,7,8-tetrahydropyrido[2,3-d]pyrimidine-2,4(1H,3H)-dione] | 1 to 15 µM
CCn1c(=O)[nH]c2c(c1=O)CC[C@H](c1ccccc1)N2 [Compound 64] | > 15 µM
O=c1[nH]c2c(c(=O)n1-c1ccccc1)C(O)C[C@H](c1ccc(F)cc1)N2 (stereo partly drawn) [Compound 95, (7R)-7-(4-Fluorophenyl)-5-hydroxy-3-phenyl-5,6,7,8-tetrahydropyrido[2,3-d]pyrimidine-2,4(1H,3H)-dione] | > 15 µM
CC(C)n1c(=O)[nH]c2c(c1=O)CC[C@H](c1ccc(=O)[nH]c1)N2 [Compound 54] | > 15 µM
CC(C)n1c(=O)[nH]c2c(c1=O)CC[C@@](c1ccccc1)(C(F)F)N2 [Compound 112] | < 1 µM
O=c1[nH]c2c(c(=O)n1-c1cc(F)cc(F)c1)CC[C@H](CC1CC(F)(F)C1)N2 [Compound 51] | 1 to 15 µM
O=c1[nH]c2c(c(=O)n1C1CCC1)CC[C@H](c1ccc(F)c(F)c1)N2 [Compound 96] | 1 to 15 µM
CC1(n2c(=O)[nH]c3c(c2=O)CC[C@H](c2ccccc2F)N3)CC1 [Compound 114] | 1 to 15 µM
COc1cccc(-n2c(=O)[nH]c3c(c2=O)CC[C@H](C2CCC(F)(F)CC2)N3)n1 [Compound 39] | 1 to 15 µM

The remaining lines, values ahead:

IC50 | SMILES
< 1 µM | CC1(n2c(=O)[nH]c3c(c2=O)CC[C@H](C2CCC(F)(F)CC2)N3)CC1 [Compound 37]
> 15 µM | CCn1c(=O)[nH]c2c(c1=O)CC[C@H](c1cccc(F)c1F)N2 [Compound 58]
1 to 15 µM | CC(C)n1c(=O)[nH]c2c(c1=O)C[C@H](c1ccccc1)N2 (single isomer, unassigned) [Compound 7]
> 15 µM | CC(C)n1c(=O)[nH]c2c(c1=O)C[C@H](C)[C@H](c1ccccc1)N2 [Compound 92]
1 to 15 µM | CCn1c(=O)[nH]c2c(c1=O)CC[C@H](c1cccc(Cl)c1)N2 [Compound 11, (R)-7-(3-Chlorophenyl)-3-ethyl-5,6,7,8-tetrahydropyrido[2,3-d]pyrimidine-2,4(1H,3H)-dione]
< 1 µM | CC[C@@H](C)n1c(=O)[nH]c2c(c1=O)CC[C@H](C1CCC(F)(F)CC1)N2 [Compound 78]
1 to 15 µM | Cc1ccccc1[C@H]1CCc2c([nH]c(=O)n(C(C)C)c2=O)N1 [Compound 104]
1 to 15 µM | COC(=O)N1CCC(n2c(=O)[nH]c3c(c2=O)CC[C@](C)(c2ccc(F)c(F)c2)N3)CC1 [Compound 125]
> 15 µM | CC(C)n1c(=O)[nH]c2c(c1=O)CC(F)(F)[C@@H](c1cccc(Cl)c1)N2 [Compound 130]
1 to 15 µM | O=c1[nH]c2c(c(=O)n1-c1cc(F)cc(F)c1)CC[C@H](C1CCCC1)N2 [Compound 40]
> 15 µM | CC(C)n1c(=O)[nH]c2c(c1=O)C[C@@H](C)[C@H](c1ccccc1)N2 [Compound 91]
< 1 µM | CC(C)n1c(=O)[nH]c2c(c1=O)CC[C@](C)(c1cc(F)ccc1F)N2 [Compound 115]
1 to 15 µM | CCn1c(=O)[nH]c2c(c1=O)CC[C@H](c1ccc(F)cc1F)N2 [Compound 16]
1 to 15 µM | O=c1[nH]c2c(c(=O)n1-c1ccccc1)CC[C@H](c1ccc(F)cc1)N2 [Compound 3, (R)-7-(4-Fluorophenyl)-3-phenyl-5,6,7,8-tetrahydropyrido[2,3-d]pyrimidine-2,4(1H,3H)-dione]
1 to 15 µM | [2H]C1([2H])C[C@H](c2ccc(F)c(F)c2)Nc2[nH]c(=O)n(C(C)C)c(=O)c21 [Compound 101, (7R)-7-(3,4-Difluorophenyl)-3-isopropyl-5,6,7,8-tetrahydropyrido[2,3-d]pyrimidine-2,4(1H,3H)-dione-5,5-d2]
1 to 15 µM | COc1ccc([C@H]2CCc3c([nH]c(=O)n(C(C)C)c3=O)N2)cn1 [Compound 59]
< 1 µM | C[C@]1(c2cccc(F)c2)CCc2c([nH]c(=O)n(CC(F)(F)F)c2=O)N1 [Compound 137]
1 to 15 µM | Cn1c(=O)[nH]c2c(c1=O)CC[C@](C)(c1cc(F)ccc1F)N2 [Compound 118]
> 15 µM | O=c1[nH]c2c(c(=O)n1-c1cc(F)cc(F)c1)CC[C@H](C1CC(F)(F)C1)N2 [Compound 42]
1 to 15 µM | CCn1c(=O)[nH]c2c(c1=O)CC[C@H](c1ccc(Cl)cc1)N2 [Compound 15]
> 15 µM | CC(C)n1c(=O)[nH]c2c(c1=O)CC(F)(F)[C@@H](c1ccccc1)N2 [Compound 117, (R)-6,6-Difluoro-3-isopropyl-7-phenyl-5,6,7,8-tetrahydropyrido[2,3-d]pyrimidine-2,4(1H,3H)-dione]
1 to 15 µM | CCC[C@]1(c2ccccc2)CCc2c([nH]c(=O)n(CC)c2=O)N1 [Compound 133]
